# Key:
# WT CD8 T cells = WT CD8 T cells activated with anti-CD3/CD28; type: cell-based, mouse; conditions: anti-CD3/CD28 activation in the presence of PARPi, 48 h
# pMel-1 CD8 T cells [1] = experiment: Seahorse assays (OCR, ECAR); type: cell-based, mouse; conditions: PARPi-induced TCM^sup vs gp100-induced TCM
# Procedure: CD8 T cells were activated with gp100 peptide with/without PARPi for 48 h, followed by mitochondrial stress tests (SeaHorse Bioscience), performed as per the manufacturer's specifications. OCR and ECAR were measured with an XFp flux analyzer (Seahorse Bioscience). For all assays, 160,000 cell per ml were plated onto culture plates using Cell-Tak (BD Biosciences). OCR and ECAR were measured in unbuffered DMEM (Agilent Biotechnologies) supplemented with 10 mM D-glucose (Sigma-Aldrich), 10 mM L-glutamine and 2.5 mM pyruvate, as indicated. The rates of FAO were determined in variously treated cells, as described above, using a Seahorse XF Palmitate-BSA FAO Reagent kit, used according to the manufacturer's instructions (Agilent Biotechnologies).
# B16F10 tumors = experiment: B16F10 tumor model: tumor growth and survival; type: in vivo, mouse
# Procedure: C57BL/6J mice were injected with 7×10^4 TC-1 cells per mouse or 1×10^5B16F10 cells per mouse in the right flank. Treatment in respective groups was started when tumors reached an average size of approximately 0.075 cm^3. […] Mice were treated daily with IP injection at a dose of 50 mg kg-1.
# For vaccination, TC-1-specific E7 peptide (a nine amino acid peptide, […] (SEQ ID NO: 1); 100 μg per mouse per 100 μl; Celtak Bioscience) or B16-specific gp10025-33 nonamer peptide ([…] (SEQ ID NO: 2); 100 μg per mouse per 100 μl; AnaSpec) were used. Both the vaccines were mixed with a small 13-mer nonnatural pan-HLA DR-binding epitope (PADRE (SEQ ID NO: 3); aK-Cha-[…]a (SEQ ID NO: 4), where ‘a’ is d-alanine, and ‘Cha’ is 1-cyclohexylalanine, T helper epitope, 20 μg per mouse; Celtak Bioscience) and QuilA (adjuvant, 10 μg per mouse; Brenntag). For survival and therapy experiments, mice were vaccinated three times, starting at an average tumor size of 0.07 cm^3, while for immune response experiments mice were vaccinated twice with a one-week interval between vaccinations. Tumors were measured every 3-4 days using a digital vernier caliper, and the tumor volume was calculated using the formula: V=L×W2/2000, where V is tumor volume, L is the length of the tumor (longer diameter) and W is the width of the tumor (shorter diameter). Mice were monitored for tumor growth and survival. Mice were euthanized when the tumor volume reached 1.5 cm^3.
# [2] = tested on: CD8 T cells of patients with recurrent ovarian cancer; experiment: PBMC of ovarian cancer patients pre and post treatment; type: in vivo, human
# Procedure: Peripheral blood mononuclear cells (PBMCs) were isolated from whole blood collected in cell preparation tubes (CPT) with sodium citrate and viably frozen until analysis. After thawing, PBMCs were washed with flow buffer (5% BSA, 2 mM EDTA in PBS), incubated with Fc receptor blocking reagent (Miltenyi Biotec) and stained with monoclonal antibodies for 20-30 min at 4° C. For staining for Ki-67 and Granzyme B, cells were fixed and permeabilized using a Fix/Perm buffer (eBiosciences) according to the manufacturer's instructions. Dead cells were excluded from the analysis by using the viability dye, LIVE/DEAD Fixable (Life Technologies). All assays were performed using multiparametric flow cytometry (MACSQuant; Miltenyi Biotec). Data were analyzed using FlowJo software v.10.6.1 (FlowJo, LLC). Flow cytometric data were quantified either as the median fluorescence intensity or as a percentage of cells, as indicated.
# pMel-1 CD8 T cells [3] = type: cell-based
# Procedure: For ACT experiments, CD8+ T cells from pMel-1 mice were activated with gp100 peptide with and without PARPi for 48 h. Based on their CD44 and CD62L expression, cells were sorted by FACS and transferred into 9-day-old B16F10 melanoma-bearing mice tumor-bearing mice (1×10^6 cells per mouse). Tumor growth and survival of mice were monitored.
# A total of 0.1-0.2×10^6 cells per sample were stained for Live/Dead staining followed by fixation and permeabilization. […] CD8^+ T cells from tumor samples were stained similarly. Data acquisition was performed on a BD LSR II flow cytometer using the software FACS Diva v.9.0. Results were analyzed using FlowJo software (TreeStar). […]
smiles,measurement,setting,value
O=C(c1cc(Cc2n[nH]c(=O)c3ccccc23)ccc1F)N1CCN(C(=O)C2CC2)CC1 [olaparib],generation of the CD44hiCD62Lhi population,WT CD8 T cells,also seen
same,extracellular acidification rate (ECAR; Glycolysis),pMel-1 CD8 T cells [1],decrease
same,oxygen consumption rate (OCR; OXPHOS),pMel-1 CD8 T cells [1],significant increase
same,"tumor growth and survival, enhancement of anti-tumor immune response of the vaccine","B16F10 tumors; B16F10, PARPi 50 mg/kg IP daily in combination with gp100 vaccine",significantly retarding tumor growth and prolonging survival
same,mice alive,"B16F10 tumors; B16F10 tumor model, day 22, PARPi added to the vaccine (gp100)",40%
same,single agent effect,"B16F10 tumors; B16 model, PARPi alone",no single agent effect
same,frequency of Ki67+ CD8 T cells,"[2]; olaparib plus anti-PDL1 (Durvalumab), pre vs post treatment",decrease
same,CD62L expression in TCM CD8 T cells,"[2]; olaparib plus anti-PDL1 (Durvalumab), some patients",increased
same,patients with an increase in TCM CD8 T cells,"[2]; ovarian cancer patients treated with olaparib plus anti-PDL1 (Durvalumab), pre vs post treatment",63%
same,toxicity (percentage of live cells),pMel-1 CD8 T cells [3]; 48 h time point,did not show any significant toxicity
same,phenotype of CD44intCD62Lint intermediate population,pMel-1 CD8 T cells [3]; 96 h after PARPi treatment,shifted more toward CD44^hiCD62L^hi population
same,"expression of memory markers Eomes, CCR7 and Bcl2","pMel-1 CD8 T cells [3]; CD44hiCD62Lhi population compared to TCM, 48 h",significantly increased
same,mitochondrial mass (MitoFM),pMel-1 CD8 T cells [3]; TCM^sup cells,increase
same,PGC1α expression,pMel-1 CD8 T cells [3]; TCM^sup cells vs TCM from gp100,increase
same,level of γH2AX,pMel-1 CD8 T cells [3]; activated pMel-1 CD8 T cells,increase
same,IFNγ and Gzm B in PARPi-induced CD44hiCD62Lhi cells,"pMel-1 CD8 T cells [3]; compared to TCM, 48 h",significantly higher
same,IFNγ and Gzm B expression on activated CD8 T cells,"pMel-1 CD8 T cells [3]; compared to gp100 alone, 48 h",significant increase
same,cell cycle,"pMel-1 CD8 T cells [3]; gp100-activated, 48 h",arrested in the G2/M phase
same,proliferation capacity (Ki67),"pMel-1 CD8 T cells [3]; gp100-activated, 48 h",significantly reduced
same,percentage of CD44hiCD62Lhi TCM CD8 T cell population,"pMel-1 CD8 T cells [3]; gp100-activated, 48 h of treatment, for PARPi concentration-dependent",increase
